These results are taken from US8993574B2, “Pyrrole antifungal agents” (F2G Ltd, priority 2008, dated 2015).

Values after ≈ are worked out from the molar mass of the structure shown.

Common to all, as to type: cell-based
Test [1] has as its system Aspergillus niger. The experiment in a line: MIC, RPMI medium. To be noted: Aspergillus niger, MIC banded into grades, read-out: MIC grade, A. niger. A digest of the protocol:
(§1)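 Broth microdilution in RPMI with 2% glucose, 0.135 M MOPS pH 7.0; compounds as doubling dilutions, 50-0.05 mg/L, inoculum 1−2×10^4 cfu/mL. Incubated 24-48 h at 35° C; growth by OD 485 nm. MIC is lowest concentration giving >80% growth inhibition versus drug-free control.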

Another test relates to Candida krusei. The experiment in a line: MIC, RPMI medium. The settings on record: Pichia kudriavzevii, 24-48 h at 35° C., >80% growth inhibition, banded into grades. A digest of the protocol:
as §1

Test [2] deals with Aspergillus flavus. The experiment in a line: MIC, RPMI medium. The settings on record: Aspergillus flavus, MIC banded into grades, read-out: MIC grade, A. flavus. A digest of the protocol:
as §1

The test system of a further test is Candida tropicalis. The experiment in a line: MIC, RPMI medium. The settings on record: Candida tropicalis, 24-48 h at 35° C., >80% growth inhibition, banded into grades. The method in brief:
as §1

Test [3] has as its system Aspergillus fumigatus AF210. Nature of the test: MIC, RPMI medium. To be noted: Aspergillus fumigatus, AF210, MIC banded into grades, read-out: MIC grade, A. fumigatus 210. A digest of the protocol:
as §1

In the next test the test system is Candida parapsilosis. The experiment in a line: MIC, RPMI medium. To be noted: Lodderomyces parapsilosis, 24-48 h at 35° C., >80% growth inhibition, banded into grades. A digest of the protocol: as §1
Another test has as its system Candida albicans. Nature of the test: MIC, RPMI medium. To be noted: Candida albicans, 24-48 h at 35° C., >80% growth inhibition, banded into grades. A digest of the protocol:
as §1

For test [4], the system named is Aspergillus fumigatus AF293. Nature of the test: MIC, RPMI medium. To be noted: Aspergillus fumigatus, AF293, MIC banded into grades, read-out: MIC grade, A. fumigatus. A digest of the protocol: as §1
The next test relates to Candida glabrata. Nature of the test: MIC, RPMI medium. The settings on record: Nakaseomyces glabratus, 24-48 h at 35° C., >80% growth inhibition, banded into grades. The method in brief: as §1
Test [5] deals with Aspergillus terreus AT49. The experiment in a line: MIC, RPMI medium. The settings on record: Aspergillus terreus, AT49, MIC banded into grades, read-out: MIC grade, A. terreus 49. The method in brief: as §1
Test [6] concerns Aspergillus terreus AT4. Nature of the test: MIC, RPMI medium. To be noted: Aspergillus terreus, AT4, MIC banded into grades, read-out: MIC grade, A. terreus. The method in brief:
as §1

Test [7] relates to Aspergillus niger. The experiment in a line: MIC, YAG medium. The settings on record: Aspergillus niger, 24 h at 35° C, MIC banded into grades, read-out: MIC grade, A. niger. A digest of the protocol: (§2)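 Broth microdilution in YAG medium tests compound over 50-0.05 mg/L against spores at 1−2×10^4 cfu/mL. After 24 h incubation at 35° C, optical density at 485 nm gives growth, and the MIC is the lowest concentration reducing it by more than 70% relative to untreated control.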

In test [8] the test system is Aspergillus flavus. Nature of the test: MIC, YAG medium. To be noted: Aspergillus flavus, 24 h, 24 h at 35° C, MIC banded into grades, read-out: MIC grade, A. flavus. The method in brief: as §2
The subject of test [9] is Aspergillus fumigatus AF210. Nature of the test: MIC, YAG medium. To be noted: Aspergillus fumigatus, 24 h at 35° C, MIC banded into grades, read-out: MIC grade, A. fumigatus 210. A digest of the protocol: as §2
Test [10] has as its system Aspergillus fumigatus AF293. The experiment in a line: MIC, YAG medium. The settings on record: Aspergillus fumigatus, 24 h at 35° C, MIC banded into grades, read-out: MIC grade, A. fumigatus. A digest of the protocol:
as §2

Test [11] relates to Aspergillus terreus AT49. Nature of the test: MIC, YAG medium. To be noted: Aspergillus terreus, 24 h at 35° C, MIC banded into grades, read-out: MIC grade, A. terreus 49. A digest of the protocol:
as §2

The subject of test [12] is Aspergillus terreus AT4. The experiment in a line: MIC, YAG medium. To be noted: Aspergillus terreus, 24 h at 35° C, MIC banded into grades, read-out: MIC grade, A. terreus. A digest of the protocol:
as §2

Take `Cc1cc(C)nc(N2CCN(c3ccc(NC(=O)C(=O)c4c(-c5ccccc5)ccn4CCN(C)C)cc3)CC2)c1` [Example 84, 2-[1-(2-Dimethylamino-ethyl)-3-phenyl-1H-pyrrol-2-yl]-N-{4-[4-(4,6-dimethyl-pyridin-2-yl)-piperazin-1-yl]-phenyl}-2-oxo-acetamide]: the MIC (usually the least concentration at which growth counts as inhibited) in the test with Aspergillus niger [1] was over 10 µg/mL; against Candida krusei it was under 1 µg/mL; with Aspergillus flavus [2], over 10 µg/mL; in the test with Candida tropicalis, under 1 µg/mL; in test [3], over 10 µg/mL; against Candida parapsilosis it was under 1 µg/mL. Also, the MIC was under 1 µg/mL with Candida albicans; over 10 µg/mL in test [4]; under 1 µg/mL with Candida glabrata; over 10 µg/mL in the test with Aspergillus terreus AT49 [5]; over 10 µg/mL in the test with Aspergillus terreus AT4 [6]; over 10 µg/mL in the test on Aspergillus niger [7]. Also, the MIC (in the test on Aspergillus flavus [8]; in [9]; in test [10]; in the test on Aspergillus terreus AT49 [11]; in the test on Aspergillus terreus AT4 [12]) was over 10 µg/mL each time.
Take `COCCn1ccc(CC(C)C)c1C(=O)C(=O)Nc1ccc(N2CCN(c3cc(C)cc(C)n3)CC2)cc1` [Example 68, N-{4-[4-(4,6-Dimethyl-pyridin-2-yl)-piperazin-1-yl]-phenyl}-2-[3-isobutyl-1-(2-methoxy-ethyl)-1H-pyrrol-2-yl]-2-oxo-acetamide]: the MIC in the test on Aspergillus niger [1] was over 10 µg/mL; against Candida krusei it was 1 to 10 µg/mL (≈ 1.93 to 19.3 µM); in the test on Aspergillus flavus [2], over 10 µg/mL; with Candida tropicalis, under 1 µg/mL; in [3], over 10 µg/mL; against Candida parapsilosis it was under 1 µg/mL. For the same compound, the MIC against Candida albicans is under 1 µg/mL; in [4], over 10 µg/mL; against Candida glabrata, under 1 µg/mL; with Aspergillus terreus AT49 [5], over 10 µg/mL; in the test with Aspergillus terreus AT4 [6], over 10 µg/mL; with Aspergillus niger [7] it was over 10 µg/mL. Also, the minimum inhibitory concentration (MIC) with Aspergillus flavus [8] was over 10 µg/mL; in [9] it was over 10 µg/mL; in [10], 1 to 10 µg/mL (≈ 1.93 to 19.3 µM); in the test on Aspergillus terreus AT49 [11], 1 to 10 µg/mL (≈ 1.93 to 19.3 µM); in the test on Aspergillus terreus AT4 [12] it was 1 to 10 µg/mL (≈ 1.93 to 19.3 µM).
